Among the data in patent US20060041123A1, “Antibacterial agents” (priority 2002, published 2006) are MIC values, retold here.

Read-outs that look alike come from different tables or passages of the source.

The experiment can be described thus: Antimicrobial activity assay: whole-cell MIC by broth microdilution (NCCLS M7-A6). It is filed as cell-based. The method, boiled down: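 Broth microdilution per NCCLS M7-A6, with serial two-fold compound dilutions from 0.016 to 16 mcg/mL. MIC read as the lowest concentration inhibiting visible growth, using a mirror reader.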
Where [1] appears, read: versus all the organisms named above (S. aureus WCUH29, S. pneumoniae 1629, S. pyogenes CN 10, E. faecalis 2, H. influenzae NEMC1, E. coli 7623, M. catarrhalis Ravasio), read-out: MIC.

For the molecule `COc1ccc2ncc(F)c(CCN3CCC(CO)(NC(=O)c4ccc5c(n4)NC(=O)CS5)CC3)c2n1.Cl` [Example 93, N-[1-{2-[3-fluoro-6-(methoxy)-1,5-naphthyridin-4-yl]ethyl}-4-(hydroxymethyl)-4-piperidinyl]-3-oxo-3,4-dihydro-2H-pyrido[3,2-b][1,4]thiazine-6-carboxamide hydrochloride], the MIC under setting [1] is at most 2 µg/mL. For `COc1ccc2ncc(Cl)c(CCN3CCC(CO)(NCc4ccc5c(n4)NC(=O)CS5)CC3)c2c1.Cl.Cl` [Example 21, 6-({1-[2-(3-Chloro-6-methoxyquinolin-4-yl)ethyl]4-hydroxymethylpiperidin-4-ylamino}methyl)-4H-pyrido[3,2-b][1,4]thiazin-3-one Dihydrochloride], the MIC under setting [1] is at most 2 µg/mL. With `COc1ccc2ncc(F)c(CCN3CCC(NCc4cnc5c(c4)OCCO5)CC3)c2c1.Cl.Cl` [Example 85, N-(2,3-dihydro[1,4]dioxino[2,3-b]pyridin-7-ylmethyl)-1-(2-[3-fluoro-6-(methoxy)-4-quinolinyl]ethyl}-4-piperidinamine dihydrochloride], the MIC under setting [1] was at most 2 µg/mL.

Regarding `COc1c(F)ccc2ncc(Cl)c(CCN3CCC(NCc4cc5c(cn4)OCCO5)CC3)c12.Cl.Cl` [Example 110, 1-{2-[3-chloro-6-fluoro-5-(methoxy)-4-quinolinyl]ethyl}-N-(2,3-dihydro[1,4]dioxino[2,3-c]pyridin-7-ylmethyl)-4-piperidinamine dihydrochloride], the MIC under setting [1] is at most 2 µg/mL. Turning to `COc1ccc2ncc(F)c(CCN3CCC(NCc4ccc5c(n4)NC(=O)CS5)CC3)c2c1.Cl.Cl` [Example 31, 6-({1-[2-(3-Fluoro-6-methoxyquinolin-4-yl)ethyl]piperidin-4-ylamino}methyl)-4H-pyrido[3,2-b][1,4]thiazin-3-one dihydrochloride], under setting [1], the MIC is at most 2 µg/mL. For `COc1ccc2ncc(F)c(CCN3CCC(NC(=O)c4ccc5c(n4)NC(=O)CO5)CC3)c2c1.Cl` [Example 94, N-(1-{2-[3-fluoro-6-(methoxy)-4-quinolinyl]ethyl}-4-piperidinyl)-3-oxo-3,4-dihydro-2H-pyrido[3,2-b][1,4]oxazine-6-carboxamide hydrochloride], under setting [1], the MIC was at most 2 µg/mL.

`COc1ccc2ncc(F)c(CCN3CCC(C)(NCc4cc5c(cn4)OCCO5)CC3)c2n1.Cl.Cl` [Example 140, N-(2,3-dihydro[1,4]dioxino[2,3-c]pyridin-7-ylmethyl)-1-{2-[3-fluoro-6-(methoxy)-1,5-naphthyridin-4-yl]ethyl}-4-methyl-4-piperidinamine dihydrochloride]: the MIC under setting [1] is at most 2 µg/mL. With `COc1ccc2ncc(F)c(CCN3CCC(NCc4cc5c(cn4)SCCN5)CC3)c2n1.Cl.Cl` [Example 54, N-(2,3-Dihydro-1H-pyrido[3,4-b][1,4]thiazin-7-ylmethyl)-1-{2-[3-fluoro-6-(methoxy)-1,5-naphthyridin-4-yl]ethyl}-4-piperidinamine dihydrochloride], under setting [1], the MIC was at most 2 µg/mL. The molecule `COc1ccc2ncc(F)c(CCN3CC[C@H](NCc4ccc5c(n4)NC(=O)CO5)[C@H](O)C3)c2n1.Cl.Cl` [Example 68, 6-{[((3R,4S)-1-{2-[3-fluoro-6-(methoxy)-1,5-naphthyridin-4-yl]ethyl}-3-hydroxy-4-piperidinyl)amino]methyl}-2H-pyrido[3,2-b][1,4]oxazin-3(4H)-one dihydrochloride] displayed an MIC of at most 2 µg/mL. Take `COc1cc(F)c2ncc(F)c(CCN3CC[C@H](NC(=O)c4ccc5c(n4)NC(=O)CS5)[C@H](F)C3)c2c1.Cl` (single isomer, unassigned; enantiomer 1) [Example 151, cis-N-(1-{2-[3,8-difluoro-6-(methoxy)-4-quinolinyl]ethyl}-3-fluoro-4-piperidinyl)-3-oxo-3,4-dihydro-2H-pyrido[3,2-b][1,4]thiazine-6-carboxamide hydrochloride Enantiomer 1]: the MIC under setting [1] is at most 2 µg/mL.

Turning to `COc1ccc2ncc(Cl)c(CCN3CC[C@@H](NCc4ccc5c(n4)NC(=O)CO5)[C@H](O)C3)c2n1.Cl.Cl.Cl` (single isomer, unassigned; enantiomer 1) [Example 153, trans-6-({1-[2-(3-Chloro-6-methoxy-[1,5]naphthyridin-4-yl)-ethyl]-3-hydroxy-piperidin-4-ylamino}-methyl)-4H-pyrido[3,2-b][1,4] oxazin-3-one trihydrochloride Enantiomer 1], the MIC under setting [1] was at most 2 µg/mL.

On to `COc1ccc2ncc(F)c(CCN3CCC(NCc4ccc5c(n4)NC(=O)CS5)CC3)c2n1.Cl.Cl` [Example 59, 6-{[(1-{2-[3-Fluoro-6-(methoxy)-1,5-naphthyridin-4-yl]ethyl}-4-piperidinyl)amino]methyl}-2H-pyrido[3,2-b][1,4]thiazin-3(4H)-one dihydrochloride], for which the MIC under setting [1] was at most 2 µg/mL.

`COc1ccc2ncc(F)c(CCN3CCC(NCc4ccc5c(n4)NCCS5)CC3)c2c1.Cl.Cl` [Example 81, N-(3,4-dihydro-2H-pyrido[3,2-b][1,4]thiazin-6-ylmethyl)-1-{2-[3-fluoro-6-(methoxy)-4-quinolinyl]ethyl}-4-piperidinamine dihydrochloride] showed an MIC of at most 2 µg/mL. In the case of `COc1ccc2ncc(F)c(C(O)CN3CCC(NCc4cc5c(cn4)OCCO5)CC3)c2n1.Cl.Cl.O` (single isomer, unassigned; enantiomer 2) [Example 100, 2-{4-[(2,3-Dihydro[1,4]dioxino[2,3-c]pyridin-7-ylmethyl)amino]-1-piperidinyl}-1-[3-fluoro-6-(methoxy)-1,5-naphthyridin-4-yl]ethanol Dihydrochloride Hydrate Enantiomer 2], the MIC under setting [1] is at most 2 µg/mL. Turning to `COc1ccc2ncc(F)c(CCN3CC[C@@H](NCc4ccc5c(n4)NC(=O)CS5)[C@@H](O)C3)c2n1.Cl.Cl` (single isomer, unassigned; enantiomer 2) [Example 70], the MIC is at most 2 µg/mL. For `COc1ccc2ncc(F)c(CCN3CCC(NCc4ccc5c(c4)CCO5)CC3)c2n1.Cl.Cl` [Example 178, N-(2,3-dihydro-1-benzofuran-5-ylmethyl)-1-{2-[3-fluoro-6-(methoxy)-1,5-naphthyridin-4-yl]ethyl}-4-piperidinamine dihydrochloride], the MIC under setting [1] is at most 2 µg/mL. Consider `COc1ccc2ncc(F)c(CCN3CC[C@H](NCc4cc5c(cn4)OCCO5)[C@H](O)C3)c2n1.Cl.Cl` (single isomer, unassigned; enantiomer 1) [Example 66], for which the MIC under setting [1] is at most 2 µg/mL. As to `COc1ccc2ncc(F)c(CCN3CCC(NCc4ccc5c(c4)OCCO5)CC3)c2n1` [Example 157, N-(2,3-dihydro-1,4-benzodioxin-6-ylmethyl)-1-{2-[3-fluoro-6-(methoxy)-1,5-naphthyridin-4-yl]ethyl}-4-piperidinamine], under setting [1], the MIC is at most 2 µg/mL.
